PubChem BioAssay AID330 (DTP/NCI, 2004)
“And” between values parts separate entries of the source, which are not always exact repeats. Equal values may be shown once. Inconclusive results and toxic doses are left out. Rule for the calls: active = survival T/C of 150% or more; inactive = T/C below 125% in these data.

Tested on: P388 leukemia ip, CD2F1 mice, survival T/C
Experiment: NCI In Vivo Anticancer Drug Screen. Data for tumor model P388 Leukemia (intraperitoneal) in CD2F1 (CDF1) mice
Conditions: endpoint: median survival time, higher = longer survival
In short: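 Mice carrying the transplanted tumor received test compound or vehicle. Survival was recorded in each group, and the value is the treated-group measurement divided by that of the vehicle-treated control group.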

[1] = dose: 25.0 mg/kg/injection, schedule: Q04DX003 (ip), vehicle: saline
[2] = dose: 50.0 mg/kg/injection, schedule: Q01DX009 (ip), vehicle: saline
[3] = dose: 50.0 mg/kg/injection, schedule: Q04DX003 (ip), vehicle: saline
[4] = dose: 100.0 mg/kg/injection, schedule: Q01DX001 (ip), vehicle: saline
[5] = dose: 100.0 mg/kg/injection, schedule: Q01DX009 (ip), vehicle: saline
[6] = dose: 100.0 mg/kg/injection, schedule: Q04DX003 (ip), vehicle: saline
[7] = dose: 200.0 mg/kg/injection, schedule: Q01DX001 (ip), vehicle: saline
[8] = dose: 200.0 mg/kg/injection, schedule: Q01DX009 (ip), vehicle: saline
[9] = dose: 100.0 mg/kg/injection, schedule: Q04DX003 (ip), vehicle: saline with Tween-80
[10] = dose: 200.0 mg/kg/injection, schedule: Q04DX003 (ip), vehicle: saline with Tween-80
[11] = dose: 400.0 mg/kg/injection, schedule: Q04DX003 (ip), vehicle: saline with Tween-80
[12] = dose: 50.0 mg/kg/injection, schedule: Q01DX005 (ip), vehicle: Klucel (hydroxypropylcellulose) (HPC)
[13] = dose: 100.0 mg/kg/injection, schedule: Q01DX005 (ip), vehicle: Klucel (hydroxypropylcellulose) (HPC)
[14] = dose: 60.0 mg/kg/injection, schedule: Q01DX005 (ip), vehicle: saline with Tween-80
[15] = dose: 120.0 mg/kg/injection, schedule: Q01DX005 (ip), vehicle: saline with Tween-80
[16] = dose: 240.0 mg/kg/injection, schedule: Q01DX005 (ip), vehicle: saline with Tween-80

Measured: T/C

COc1cc(C[C@H]2c3cc(OC)c(OC)cc3CCN2C)c(Oc2cc3c(cc2OC)-c2c(OC)c(OC)cc4c2[C@H](C3)N(C)CC4)cc1OC
inactive: dose: 2.5 mg/kg/injection, schedule: Q03HX016 (ip), vehicle: saline 90 % of control | dose: 2.5 mg/kg/injection, schedule: Q03HX024 (ip), vehicle: saline 95 % of control | dose: 5.0 mg/kg/injection, schedule: Q03HX008 (ip), vehicle: saline 91 % of control | dose: 5.0 mg/kg/injection, schedule: Q03HX016 (ip), vehicle: saline 100 % of control | dose: 5.0 mg/kg/injection, schedule: Q03HX024 (ip), vehicle: saline 95 % of control | dose: 6.25 mg/kg/injection, schedule: Q01DX009 (ip), vehicle: saline 90 % of control | dose: 10.0 mg/kg/injection, schedule: Q01DX009 (ip), vehicle: distilled water + Tween-80 96 % of control | dose: 10.0 mg/kg/injection, schedule: Q03HX008 (ip), vehicle: saline 95 % of control | dose: 10.0 mg/kg/injection, schedule: Q03HX016 (ip), vehicle: saline 100 % of control | dose: 10.0 mg/kg/injection, schedule: Q03HX024 (ip), vehicle: saline 95 % of control | dose: 12.5 mg/kg/injection, schedule: Q01DX009 (ip), vehicle: saline 104 % of control | dose: 12.5 mg/kg/injection, schedule: Q01DX009 (oral), vehicle: saline 100 % of control | dose: 20.0 mg/kg/injection, schedule: Q01DX009 (ip), vehicle: distilled water + Tween-80 92 % of control | dose: 20.0 mg/kg/injection, schedule: Q03HX008 (ip), vehicle: saline 100 % of control | dose: 20.0 mg/kg/injection, schedule: Q03HX016 (ip), vehicle: saline 100 % of control | dose: 20.0 mg/kg/injection, schedule: Q03HX024 (ip), vehicle: saline 100 % of control | dose: 25.0 mg/kg/injection, schedule: Q01DX009 (ip), vehicle: saline 109 % of control | dose: 25.0 mg/kg/injection, schedule: Q01DX009 (oral), vehicle: saline 100 % of control | [1] 100 % of control | dose: 25.0 mg/kg/injection, schedule: Q08DX002 (ip), vehicle: saline 100 % of control | dose: 40.0 mg/kg/injection, schedule: Q01DX009 (ip), vehicle: distilled water + Tween-80 92 % of control | dose: 40.0 mg/kg/injection, schedule: Q03HX008 (ip), vehicle: saline 100 % of control | dose: 40.0 mg/kg/injection, schedule: Q03HX016 (ip), vehicle: saline 109 % of control | dose: 40.0 mg/kg/injection, schedule: Q03HX024 (ip), vehicle: saline 95 % of control | dose: 50.0 mg/kg/injection, schedule: Q01DX001 (ip), vehicle: saline 91 % of control | [2] 104 % of control | dose: 50.0 mg/kg/injection, schedule: Q01DX009 (oral), vehicle: saline 100 % of control | [3] 100 % of control | dose: 50.0 mg/kg/injection, schedule: Q08DX002 (ip), vehicle: saline 100 % of control | dose: 80.0 mg/kg/injection, schedule: Q01DX009 (ip), vehicle: distilled water + Tween-80 101 % of control | dose: 80.0 mg/kg/injection, schedule: Q03HX008 (ip), vehicle: saline 100 % of control | [4] 91 % of control | dose: 100.0 mg/kg/injection, schedule: Q01DX001 (oral), vehicle: saline 104 % of control | [5] 100 % of control | dose: 100.0 mg/kg/injection, schedule: Q01DX009 (oral), vehicle: saline 100 % of control | [6] 109 % of control | dose: 100.0 mg/kg/injection, schedule: Q08DX002 (ip), vehicle: saline 100 % of control | [7] 91 % of control | dose: 200.0 mg/kg/injection, schedule: Q01DX001 (oral), vehicle: saline 95 % of control | dose: 200.0 mg/kg/injection, schedule: Q01DX009 (oral), vehicle: saline 95 % of control | dose: 200.0 mg/kg/injection, schedule: Q04DX003 (ip), vehicle: saline 109 % of control | dose: 200.0 mg/kg/injection, schedule: Q08DX002 (ip), vehicle: saline 100 % of control | dose: 400.0 mg/kg/injection, schedule: Q01DX001 (ip), vehicle: saline 91 % of control | dose: 400.0 mg/kg/injection, schedule: Q01DX001 (oral), vehicle: saline 95 % of control | dose: 400.0 mg/kg/injection, schedule: Q08DX002 (ip), vehicle: saline 100 % of control | dose: 800.0 mg/kg/injection, schedule: Q01DX001 (ip), vehicle: saline 100 % of control | dose: 800.0 mg/kg/injection, schedule: Q01DX001 (oral), vehicle: saline 95 % of control | dose: 1600.0 mg/kg/injection, schedule: Q01DX001 (oral), vehicle: saline 104 % of control

COc1cc(Br)cc(/C=C(\C)[N+](=O)[O-])c1O
inactive: dose: 12.5 mg/kg/injection, schedule: Q04DX003 (ip), vehicle: saline 101 % of control | [1] 99 % of control and 108 % of control | [3] 104 % of control and 110 % of control | [6] 104 % of control

COc1cc(/C=C/C(=O)N2CCN(CC(=O)N3CCCC3)CC2)cc(OC)c1OC
inactive: [2] 100 % of control | [5] 94 % of control | [8] 95 % of control

CC(NNC(=S)N1CCCC1)c1cc2ccccc2cn1 (stereo unspecified)
inactive: dose: 25.0 mg/kg/injection, schedule: Q01DX005 (ip), vehicle: saline with Tween-80 104 % of control and 108 % of control | dose: 50.0 mg/kg/injection, schedule: Q01DX005 (ip), vehicle: saline with Tween-80 110 % of control and 123 % of control | dose: 100.0 mg/kg/injection, schedule: Q01DX005 (ip), vehicle: saline with Tween-80 104 % of control

CC(C)S.[Cu+2]
inactive: dose: 6.25 mg/kg/injection, schedule: Q01DX009 (ip), vehicle: saline with Tween-80 114 % of control | dose: 12.5 mg/kg/injection, schedule: Q01DX009 (ip), vehicle: saline with Tween-80 97 % of control | dose: 25.0 mg/kg/injection, schedule: Q01DX009 (ip), vehicle: saline with Tween-80 109 % of control

O=Cc1cccc(O)c1O
inactive: [5] 103 % of control and 110 % of control | [8] 115 % of control

[O-][n+]1ccc(C2CO2)cc1 (stereo unspecified)
inactive: [2] 93 % of control | [5] 101 % of control | [8] 98 % of control

C(=C1c2ccccc2-c2ccccc21)c1ccccc1
inactive: [9] 100 % of control | [10] 100 % of control | [11] 100 % of control

O=c1[nH]nc(SCc2ccccc2Cl)c(=O)[nH]1
inactive: dose: 25.0 mg/kg/injection, schedule: Q01DX005 (ip), vehicle: Klucel (hydroxypropylcellulose) (HPC) 89 % of control | [12] 89 % of control | [13] 86 % of control

Nc1c(Br)cc2c(c1Br)Cc1cc(Br)ccc1-2
inactive: [9] 104 % of control | [10] 109 % of control | [11] 90 % of control

Nc1ncnc2c1ncn2C1OC(COP(=O)(O)OP(=O)(O)OP(=O)(O)O)C(OP(=O)(O)OP(=O)(O)OP(=O)(O)O)C1O (stereo unspecified) (tested in a mixture with another compound)
inactive: dose: 60.0 mg/kg/injection, schedule: Q01DX005 (ip), vehicle: Klucel (hydroxypropylcellulose) (HPC) 93 % of control | dose: 120.0 mg/kg/injection, schedule: Q01DX005 (ip), vehicle: Klucel (hydroxypropylcellulose) (HPC) 103 % of control | dose: 240.0 mg/kg/injection, schedule: Q01DX005 (ip), vehicle: Klucel (hydroxypropylcellulose) (HPC) 101 % of control

COC(=O)c1[nH]c(=O)c(C#N)c(C(=O)OC)c1C(=O)c1ccccc1
inactive: [14] 99 % of control | [15] 99 % of control | [16] 92 % of control

N#CC1=C(Nc2ccccc2Cl)SC(c2ccccc2O)NC1=O (stereo unspecified)
inactive: [14] 103 % of control | [15] 102 % of control | [16] 96 % of control

ONC1CC(NO)CC(NO)C1 (stereo unspecified)
inactive: [4] 117 % of control | [7] 110 % of control

c1c[nH]c2c3ccncc3c3ncnc3c2c1
inactive: [12] 97 % of control | [13] 88 % of control

Fc1ccc(CN2COc3c(cc(Cl)c4cccnc34)C2)cc1
inactive: dose: 100.0 mg/kg/injection, schedule: Q04DX003 (ip), vehicle: Klucel (hydroxypropylcellulose) (HPC) 102 % of control | dose: 200.0 mg/kg/injection, schedule: Q04DX003 (ip), vehicle: Klucel (hydroxypropylcellulose) (HPC) 100 % of control | dose: 400.0 mg/kg/injection, schedule: Q04DX003 (ip), vehicle: Klucel (hydroxypropylcellulose) (HPC) 110 % of control
